Results: patent US11839613B2, “Pyrimidine derivatives as PGE2 receptor modulators” (IDORSIA PHARMACEUTICALS LTD, priority 2017, dated 2023)
pIC50: −log10 of the molar value.

Assays:
PTGER2 (EP2) = PTGER2 (EP2) (Homo sapiens (Human), UniProt P43116); assay: hEP2 b-arrestin assay (PathHunter HEK 293 PTGER2 b-arrestin cells); type: cell-based; conditions: antagonistic activity, beta-arrestin assay; read-out: hEP2 b-arr IC50
Method: Plate is pre-incubated 15 minutes at 37° C. Then five microliters of PGE2 (final conc. 5 μM) are transferred into the assay plate. Plate is incubated 120 minutes at 37° C.
(each concentration is measured in duplicate)

PTGER4 (EP4) = PTGER4 (EP4) (Homo sapiens (Human), UniProt P35408); assay: cell-based
Sequence of PTGER4 (EP4) (P35408 whole entry): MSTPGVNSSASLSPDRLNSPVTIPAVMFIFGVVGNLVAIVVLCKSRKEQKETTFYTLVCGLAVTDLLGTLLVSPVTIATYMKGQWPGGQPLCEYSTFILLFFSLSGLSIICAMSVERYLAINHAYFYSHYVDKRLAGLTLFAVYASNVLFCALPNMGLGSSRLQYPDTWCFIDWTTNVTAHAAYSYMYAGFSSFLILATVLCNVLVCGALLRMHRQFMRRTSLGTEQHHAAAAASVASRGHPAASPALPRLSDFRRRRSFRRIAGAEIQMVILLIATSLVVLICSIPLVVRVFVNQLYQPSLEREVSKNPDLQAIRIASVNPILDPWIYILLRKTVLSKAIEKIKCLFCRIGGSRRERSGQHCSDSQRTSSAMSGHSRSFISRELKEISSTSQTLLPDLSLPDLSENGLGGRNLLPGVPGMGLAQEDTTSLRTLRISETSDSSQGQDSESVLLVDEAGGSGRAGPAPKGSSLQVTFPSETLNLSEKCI

Sequence of PTGER2 (EP2) (P43116 whole entry): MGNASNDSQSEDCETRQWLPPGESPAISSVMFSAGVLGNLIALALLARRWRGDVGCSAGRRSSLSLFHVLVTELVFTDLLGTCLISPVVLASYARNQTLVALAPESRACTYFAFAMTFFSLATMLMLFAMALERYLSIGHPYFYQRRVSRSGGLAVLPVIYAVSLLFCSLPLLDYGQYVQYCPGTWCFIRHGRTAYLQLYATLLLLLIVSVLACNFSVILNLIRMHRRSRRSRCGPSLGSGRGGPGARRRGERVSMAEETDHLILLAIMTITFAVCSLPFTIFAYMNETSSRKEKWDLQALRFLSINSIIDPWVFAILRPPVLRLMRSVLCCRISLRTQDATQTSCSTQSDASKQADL

SMILES | pIC50 (PTGER2 (EP2)) | pIC50 (PTGER4 (EP4))
CCOc1cc(-c2cc(NCCc3ccc4ccsc4c3C)ncn2)ccc1C(=O)O [Example 470, 2-Ethoxy-4-{6-[2-(7-methyl-benzo[b]thiophen-6-yl)-ethylamino]-pyrimidin-4-yl}-benzoic acid] | 6.46 | 6.38
Cc1c(CCNc2cc(-c3ccc(C(=O)O)c(OC4CCC4)c3)ncn2)ccc2ccsc12 [Example 471, 2-Cyclobutoxy-4-{6-[2-(7-methyl-benzo[b]thiophen-6-yl)-ethylamino]-pyrimidin-4-yl}-benzoic acid] | 6.68 | 6.52
CCOc1cc(-c2cc(NCCc3ccc4ccsc4c3C)ncn2)ccc1CC(=O)O [Example 472, (2-Ethoxy-4-{6-[2-(7-methyl-benzo[b]thiophen-6-yl)-ethylamino]-pyrimidin-4-yl}-phenyl)-acetic acid] | 6.17 | 6.61
CSc1cc(-c2cc(NCCc3ccc4ccsc4c3C)ncn2)ccc1C(=O)O [Example 473, 4-{6-[2-(7-Methyl-benzo[b]thiophen-6-yl)-ethylamino]-pyrimidin-4-yl}-2-methylsulfanyl-benzoic acid] | 6.86 | 6.56
COc1cc(-c2cc(NCCc3cc(F)c4sccc4c3)ncn2)ccc1CC(=O)O [Example 475, (4-{6-[2-(7-Fluoro-benzo[b]thiophen-5-yl)-ethylamino]-pyrimidin-4-yl}-2-methoxy-phenyl)-acetic acid] | 6.18 | 7.21
CCOc1cc(-c2cc(NCCc3cc(C)c4sccc4c3)ncn2)ccc1C(=O)O [Example 476, 2-Ethoxy-4-{6-[2-(7-methyl-benzo[b]thiophen-5-yl)-ethylamino]-pyrimidin-4-yl}-benzoic acid] | 6.37 | 6.58
CSc1cc(-c2cc(NCCc3cc(C)c4sccc4c3)ncn2)ccc1C(=O)O [Example 477, 4-{6-[2-(7-Methyl-benzo[b]thiophen-5-yl)-ethylamino]-pyrimidin-4-yl}-2-methylsulfanyl-benzoic acid] | 6.50 | 6.68
CCCc1cc(-c2cc(NCCc3cc(C)c4sccc4c3)ncn2)ccc1C(=O)O [Example 478, 4-{6-[2-(7-Methyl-benzo[b]thiophen-5-yl)-ethylamino]-pyrimidin-4-yl}-2-propyl-benzoic acid] | 6.10 | 6.62
CCCOc1cc(-c2cc(NCCc3ccc4sccc4c3)ncn2)ccc1CC(=O)O [Example 479, {4-[6-(2-Benzo[b]thiophen-5-yl-ethylamino)-pyrimidin-4-yl]-2-propoxy-phenyl}-acetic acid] | 6.46 | 6.80
CCCOc1cc(-c2cc(NCCc3cc4c(cc3OC)OCCO4)ncn2)ccc1CC(=O)O [Example 480, (4-{6-[2-(7-Methoxy-2,3-dihydro-benzo[1,4]dioxin-6-yl)-ethylamino]-pyrimidin-4-yl}-2-propoxy-phenyl)-acetic acid] | 6.77 | 6.68
CCCc1cc(-c2cc(NCCc3cc4ccsc4c(F)c3OC)ncn2)ccc1C(=O)O [Example 483, 4-{6-[2-(7-Fluoro-6-methoxy-benzo[b]thiophen-5-yl)-ethylamino]-pyrimidin-4-yl}-2-propyl-benzoic acid] | 7.59 | 6.94
CCOc1cc(-c2cc(NCCc3cc4ccsc4c(F)c3OC)ncn2)sc1C(=O)O [Example 484, 3-Ethoxy-5-{6-[2-(7-fluoro-6-methoxy-benzo[b]thiophen-5-yl)-ethylamino]-pyrimidin-4-yl}-thiophene-2-carboxylic acid] | 8.52 | 8.52
COc1cc(-c2cc(NCCc3cc4ccsc4c(F)c3OC)ncn2)ccc1CC(=O)O [Example 485, (4-{6-[2-(7-Fluoro-6-methoxy-benzo[b]thiophen-5-yl)-ethylamino]-pyrimidin-4-yl}-2-methoxy-phenyl)-acetic acid] | 6.90 | 6.91
